Broadly, the LD50 is the dose at which mortality reaches 50%.

Consider two compounds from patent US5055469A, “Quaternary pyridinium salts useful for ulcer treatment” (Hamari Chemicals, Ltd., priority 1988, dated 1991).

One data set has as its system Slc:SD rats. The data set is described as follows: Water-immersion stress ulceration method (antiulcer activity). In kind it is in vivo, rat (male Slc:SD). The following applies: 30 minutes before stress loading; for U.I. (ulcer index) Mean ± S.E.: non-treated control 13.4 ± 2.71. The method, then: After stress loading for 7 hours, the rats were killed through exsanguination, and the stomachs were removed, perfused in the inside with 10 ml of 2% formalin and then immersed in the same solution for 10 minutes for fixation. The stomachs were incised along the greater curvature, and the ulcers thus induced were measured for length under the stereoscopic microscope (magnification×10), whereby the total sum of the lengths was taken as an ulcer index (U.I., in mm). The test substance was given orally to rats in the form of a 4% gum arabic suspension 30 minutes before stress loading.

A short description of another data set: Acute toxicity. Further details: species or system mouse (male ddY). The conditions noted are these: mouse, in vivo; mice, oral, single dose, observed for 7 days. An excerpt:
A group of five male ddY mice (4-weeks aged) was used for testing.
The compound of Example 4 was suspended in 4% gum arabic solution to prepare a test pharmaceutical, which was given orally to each test animal once.

[1] abbreviates: 30 mg/kg orally, test substance marked *p < 0.05.

`Cc1ccc(Nc2ccccc2NC(=O)C[n+]2ccccc2)cc1.[Cl-]` [Example 4, 1-[2-[[2-[(4-methylphenyl)amino]phenyl]amino]-2-oxoethyl]pyridinium chloride]: the Inhibition rate with Slc:SD rats (10 mg/kg orally) worked out at 19.0%; in the data set on Slc:SD rats (setting [1]), 75.1%; in the data set on Slc:SD rats (100 mg/kg orally, marked **p < 0.01) it was 90.0%. Moreover, the “U.I. (ulcer index) Mean ± S.E.” value in the data set with Slc:SD rats (10 mg/kg orally) is 10.8 ± 3.15 mm; with Slc:SD rats (30 mg/kg orally), 3.3 ± 1.82 mm; with Slc:SD rats (100 mg/kg orally), 1.3 ± 0.88 mm. Besides, the LD50 at 168 h in the data set “Acute toxicity” was ≥ 2000 mg/kg.
`CN/C(=N/CCSCc1nc[nH]c1C)NC#N` [Cimetidine, reference compound]: in the data set with Slc:SD rats (30 mg/kg orally), the “U.I. (ulcer index) Mean ± S.E.” value is 5.2 ± 3.40 mm. The compound further registered an Inhibition rate in the data set with Slc:SD rats (setting [1]) of 61.4%.
